Results from ChEMBL document CHEMBL4368907 (J Med Chem, 2019).
Calls of active or inactive are those of the source. The rule behind the calls is not given here. Numbered stars: 1 amine (or outer) side, 2 acyl side, 3 side chain; on linkers, the order of the positions; unused ones are H or OH. Square brackets hold non-standard residues; d marks the D form. Side chains are listed from the residue outwards. Peptide text beside a SMILES is read from it. * marks the point of attachment. Phe(4-CH2SO3H) = N[C@@H](Cc1ccc(CS(=O)(=O)O)cc1)C(=O)O; sY = N[C@@H](Cc1ccc(OS(=O)(=O)O)cc1)C(=O)O; C18 diacid = O=C(O)CCCCCCCCCCCCCCCCC(=O)*; γGlu = O=C(O)[C@H](CCC(=O)[*:2])N[*:1]; NMeF = CN[C@@H](Cc1ccccc1)C(=O)O; NMeD = CN[C@@H](CC(=O)O)C(=O)O; dNMeD = CN[C@H](CC(=O)O)C(=O)O; Nle = CCCC[C@H](N)C(=O)O; X1 = O=C(Cc1ccc(O)cc1)*; AEEA = NCCOCCOCC(=O)O

What was measured:
Sus scrofa [1] = assay: Anti-obesity activity in lean Landrace Yorkshire Duroc pig assessed as food intake at 30 nmol/kg, sc measured at 48 to 72 hrs post dose (reference value: 1.8 to 2.1 kg); type: functional
[2] = target: T1, Cholecystokinin receptor type A (Homo sapiens, UniProt P32238); assay: (§1) Agonist activity at human CCK1R expressed in human 1321N1 cells assessed as IP1 accumulation after 1 hr by HTRF assay; type: functional, cell-based
T1 sequence (P32238 whole entry): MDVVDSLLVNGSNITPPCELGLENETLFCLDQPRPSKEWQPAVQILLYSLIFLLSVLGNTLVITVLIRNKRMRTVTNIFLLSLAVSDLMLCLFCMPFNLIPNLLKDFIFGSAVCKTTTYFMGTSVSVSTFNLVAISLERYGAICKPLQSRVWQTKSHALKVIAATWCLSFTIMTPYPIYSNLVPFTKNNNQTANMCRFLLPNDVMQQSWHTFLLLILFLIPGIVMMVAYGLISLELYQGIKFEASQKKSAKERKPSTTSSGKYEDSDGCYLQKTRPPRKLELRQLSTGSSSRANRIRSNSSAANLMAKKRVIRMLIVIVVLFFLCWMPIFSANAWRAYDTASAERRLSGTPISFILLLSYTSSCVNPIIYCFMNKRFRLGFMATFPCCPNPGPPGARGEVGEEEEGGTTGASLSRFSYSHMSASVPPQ

Sus scrofa [3] = assay: Anti-obesity activity in lean Landrace Yorkshire Duroc pig assessed as food intake at 30 nmol/kg, sc measured at 24 to 48 hrs post dose (reference value: 1.8 to 2.1 kg); type: functional
[4] = Toxicity in lean Landrace Yorkshire Duroc pig at 30 nmol/kg, sc measured up to 96 hrs post dose; type: organism-based, Sus scrofa; settings: in vivo
Sus scrofa [5] = assay: Anti-obesity activity in lean Landrace Yorkshire Duroc pig assessed as food intake at 30 nmol/kg, sc measured at 72 to 96 hrs post dose (reference value: 1.8 to 2.1 kg); type: functional
[6] = target: T2, Gastrin/cholecystokinin type B receptor (Homo sapiens, UniProt P32239); assay: (§2) Displacement of [125I]-CCK-8 from human CCK2R expressed in human 1321N1 cell membranes after 2 hrs by SPA assay
T2 sequence (P32239 whole entry): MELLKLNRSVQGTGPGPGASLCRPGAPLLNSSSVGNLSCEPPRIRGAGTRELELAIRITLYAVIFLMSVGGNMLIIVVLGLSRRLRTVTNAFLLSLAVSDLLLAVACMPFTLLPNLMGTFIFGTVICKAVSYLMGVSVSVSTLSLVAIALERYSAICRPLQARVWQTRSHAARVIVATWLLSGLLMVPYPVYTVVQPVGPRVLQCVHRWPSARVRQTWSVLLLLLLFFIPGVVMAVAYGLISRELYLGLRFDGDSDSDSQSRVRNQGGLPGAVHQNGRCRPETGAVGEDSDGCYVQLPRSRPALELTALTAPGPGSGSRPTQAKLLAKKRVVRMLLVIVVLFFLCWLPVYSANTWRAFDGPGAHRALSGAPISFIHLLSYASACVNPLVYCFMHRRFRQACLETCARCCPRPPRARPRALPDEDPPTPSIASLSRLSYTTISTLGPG

[7] = target: T1, Cholecystokinin receptor type A; assay: (§3) Displacement of [125I]-CCK-8 from human CCK1R expressed in human 1321N1 cell membranes after 2 hrs by SPA assay
[8] = target: T2, Gastrin/cholecystokinin type B receptor; assay: (§4) Agonist activity at human CCK2R expressed in human 1321N1 cells assessed as IP1 accumulation after 1 hr by HTRF assay; type: functional, cell-based
Sus scrofa [9] = assay: Anti-obesity activity in lean Landrace Yorkshire Duroc pig assessed as food intake at 30 nmol/kg, sc measured up to 24 hrs post dose (reference value: 1.8 to 2.1 kg); type: functional
[10] = Plasma concentration in lean Landrace Yorkshire Duroc pig at 30 nmol/kg, sc measured after 96 hrs post dose; type: ADME, organism-based, Sus scrofa
[11] = Drug level in Ellegaard Gottingen minipig plasma treated with C18d-gammaGlu-(OEG)2-Asp-Phe(4sm)-Nle-Gly-Trp-Nle-DMeAspMePhe-NH2 at 5 nmol/kg, iv administered as single dose by LC-MS/MS analysis; type: ADME, organism-based, Sus scrofa; settings: pig, in vivo
[12] = target: T3, Cholecystokinin receptor type A (Homo sapiens) (UniProt P32238); assay: as §1; type: functional, cell-based
T3 sequence (whole entry): T1 sequence (P32238 whole entry)

[13] = target: T4, Gastrin/cholecystokinin type B receptor (Homo sapiens) (UniProt P32239); assay: as §2
T4 sequence (whole entry): T2 sequence (P32239 whole entry)

[14] = target: T3, Cholecystokinin receptor type A (Homo sapiens); assay: as §3
[15] = target: T4, Gastrin/cholecystokinin type B receptor (Homo sapiens); assay: as §4; type: functional, cell-based
[16] = Terminal half life in Ellegaard Gottingen minipig at 5 nmol/kg, iv by LC-MS/MS analysis; type: ADME, organism-based, Sus scrofa; settings: pig, in vivo, read-out: beta t1/2 (converted)

Row | SMILES | concentration at 96 h [10] | Activity (Sus scrofa [1]) | Activity (Sus scrofa [3]) | Activity [4] | Activity (Sus scrofa [5]) | Activity (Sus scrofa [9]) | also measured
1 | CCCC[C@H](NC(=O)[C@H](Cc1ccc(CS(=O)(=O)O)cc1)NC(=O)[C@H](CC(=O)O)NC(=O)COCCOCCNC(=O)COCCOCCNC(=O)CC[C@H](NC(=O)CCCCCCCCCCCCCCCCC(=O)O)C(=O)O)C(=O)NCC(=O)N[C@@H](Cc1c[nH]c2ccccc12)C(=O)N[C@@H](CCCC)C(=O)N(C)[C@@H](CC(=O)O)C(=O)N(C)[C@@H](Cc1ccccc1)C(N)=O ({C18 diacid-γGlu-AEEA-AEEA}-D[Phe(4-CH2SO3H)][Nle]GW[Nle][NMeD][NMeF]-NH2) | 93.9 nM | 2.3 kg | 2 kg | Non-Toxic | 2.2 kg | 1.9 kg | EC50 [2]: 0.107 nM; IC50 [6]: 8710 nM; IC50 [7]: 0.316 nM; EC50 [8]: > 1000 nM
2 | O=C(O)CCCCCCCCCCCCCCCCC(=O)N[C@@H](CCC(=O)NCCOCCOCC(=O)NCCOCCOCC(=O)N[C@@H](CC(=O)O)C(=O)N[C@@H](Cc1ccc(CS(=O)(=O)O)cc1)C(=O)O)C(=O)O |  |  |  |  |  |  | Drug uptake [11]: Active
3 | CCCC[C@H](NC(=O)[C@H](Cc1c[nH]c2ccccc12)NC(=O)CNC(=O)[C@H](CC(C)C)NC(=O)[C@H](Cc1ccc(O)cc1)NC(=O)[C@H](CC(=O)O)NC(=O)COCCOCCNC(=O)COCCOCCNC(=O)CC[C@H](NC(=O)CCCCCCCCCCCCCCCCC(=O)O)C(=O)O)C(=O)N(C)[C@@H](CC(=O)O)C(=O)N(C)[C@@H](Cc1ccccc1)C(N)=O [listing 1 of 2 here] |  | 2.6 kg | 2.2 kg |  | 2.3 kg | 2.3 kg | 
4 | CCCC[C@H](NC(=O)[C@H](Cc1ccc(CS(=O)(=O)O)cc1)NC(=O)[C@H](CC(=O)O)NC(=O)COCCOCCNC(=O)COCCOCCNC(=O)CC[C@H](NC(=O)CCCCCCCCCCCCCCCCC(=O)O)C(=O)O)C(=O)NCC(=O)N[C@@H](Cc1c[nH]c2ccccc12)C(=O)N[C@@H](CCCC)C(=O)N(C)[C@@H](CC(=O)O)C(=O)O ({C18 diacid-γGlu-AEEA-AEEA}-D[Phe(4-CH2SO3H)][Nle]GW[Nle][NMeD]-OH) |  |  |  |  |  |  | Drug uptake [11]: Active
5 | CCCC[C@H](NC(=O)[C@H](Cc1ccc(CS(=O)(=O)O)cc1)NC(=O)[C@H](CC(=O)O)NC(=O)COCCOCCNC(=O)COCCOCCNC(=O)CC[C@H](NC(=O)CCCCCCCCCCCCCCCCC(=O)O)C(=O)O)C(=O)NCC(=O)O ({C18 diacid-γGlu-AEEA-AEEA}-D[Phe(4-CH2SO3H)][Nle]G-OH) |  |  |  |  |  |  | Drug uptake [11]: Active
6 | CCCC[C@H](NC(=O)[C@H](Cc1ccc(OS(=O)(=O)O)cc1)NC(=O)[C@H](CC(=O)O)NC(=O)COCCOCCNC(=O)COCCOCCNC(=O)CC[C@H](NC(=O)CCCCCCCCCCCCCCCCC(=O)O)C(=O)O)C(=O)NCC(=O)N[C@@H](Cc1c[nH]c2ccccc12)C(=O)N[C@@H](CO)C(=O)N[C@@H](CC(=O)O)C(=O)N[C@@H](Cc1ccccc1)C(N)=O ({C18 diacid-γGlu-AEEA-AEEA}-D[sY][Nle]GWSDF-NH2) |  |  |  |  |  |  | pEC50 [12]: inactive; pIC50 [13]: inactive; pIC50 [14]: inactive; pEC50 [15]: inactive
7 | CCCC[C@H](NC(=O)[C@H](Cc1c[nH]c2ccccc12)NC(=O)CNC(=O)[C@H](CCCCNC(=O)COCCOCCNC(=O)COCCOCCNC(=O)CC[C@H](NC(=O)CCCCCCCCCCCCCCCCC(=O)O)C(=O)O)NC(=O)Cc1ccc(O)cc1)C(=O)N(C)[C@@H](CC(=O)O)C(=O)N(C)[C@@H](Cc1ccccc1)C(N)=O (X1-K([AEEA-AEEA-γGlu-C18 diacid])GW[Nle][NMeD][NMeF]-NH2) [listing 1 of 2 here] | < 0.9 nM |  |  | Non-Toxic |  |  | pEC50 [2]: 9.8; pIC50 [6]: 5.43; pIC50 [7]: 9.28; pEC50 [8]: < 6; half-life [16]: 7.1 h
8 | CCCC[C@H](NC(=O)[C@H](Cc1c[nH]c2ccccc12)NC(=O)CNC(=O)[C@H](CC(C)C)NC(=O)[C@H](Cc1ccc(O)cc1)NC(=O)[C@H](CC(=O)O)NC(=O)COCCOCCNC(=O)COCCOCCNC(=O)CC[C@H](NC(=O)CCCCCCCCCCCCCCCCC(=O)O)C(=O)O)C(=O)N(C)[C@@H](CC(=O)O)C(=O)N(C)[C@@H](Cc1ccccc1)C(N)=O [listing 2 of 2 here] | 8.5 nM |  |  | Non-Toxic |  |  | pEC50 [2]: 9.81; pIC50 [6]: 5.31; pIC50 [7]: 8.99; pEC50 [8]: < 6; half-life [16]: 45 h
9 | CCCC[C@H](NC(=O)[C@H](Cc1c[nH]c2ccccc12)NC(=O)CNC(=O)[C@H](CCCCNC(=O)COCCOCCNC(=O)COCCOCCNC(=O)CC[C@H](NC(=O)CCCCCCCCCCCCCCCCC(=O)O)C(=O)O)NC(=O)Cc1ccc(O)cc1)C(=O)N(C)[C@@H](CC(=O)O)C(=O)N(C)[C@@H](Cc1ccccc1)C(N)=O (X1-K([AEEA-AEEA-γGlu-C18 diacid])GW[Nle][NMeD][NMeF]-NH2) [listing 2 of 2 here] |  | 2.1 kg | 2.2 kg |  | 2.4 kg | 2.1 kg | 
10 | CCCC[C@H](NC(=O)[C@H](Cc1ccc(OS(=O)(=O)O)cc1)NC(=O)[C@H](CC(=O)O)NC(=O)COCCOCCNC(=O)COCCOCCNC(=O)CC[C@H](NC(=O)CCCCCCCCCCCCCCCCC(=O)O)C(=O)O)C(=O)NCC(=O)N[C@@H](Cc1c[nH]c2ccccc12)C(=O)N[C@@H](C)C(=O)N[C@@H](CC(=O)O)C(=O)N[C@@H](Cc1ccccc1)C(N)=O ({C18 diacid-γGlu-AEEA-AEEA}-D[sY][Nle]GWADF-NH2) |  |  |  |  |  |  | pEC50 [12]: inactive; pIC50 [13]: inactive; pIC50 [14]: inactive; pEC50 [15]: inactive

More lines, main results first:

Row | concentration at 96 h [10] | SMILES | Activity (Sus scrofa [1]) | Activity (Sus scrofa [3]) | Activity [4] | Activity (Sus scrofa [5]) | Activity (Sus scrofa [9]) | also measured
11 | 91.2 nM | CC(C)C[C@H](NC(=O)[C@H](Cc1ccc(OS(=O)(=O)O)cc1)NC(=O)[C@H](CC(=O)O)NC(=O)COCCOCCNC(=O)COCCOCCNC(=O)CC[C@H](NC(=O)CCCCCCCCCCCCCCCCC(=O)O)C(=O)O)C(=O)NCC(=O)N[C@@H](Cc1c[nH]c2ccccc12)C(=O)N[C@@H](CCC(N)=O)C(=O)N(C)[C@H](CC(=O)O)C(=O)N(C)[C@@H](Cc1ccccc1)C(N)=O ({C18 diacid-γGlu-AEEA-AEEA}-D[sY]LGWQ[dNMeD][NMeF]-NH2) | 1.8 kg | 1.3 kg | Non-Toxic | 1.8 kg | 1.4 kg | EC50 [2]: 0.135 nM
12 | 8.8 nM | CCCC[C@H](NC(=O)[C@H](Cc1ccc(CS(=O)(=O)O)cc1)NC(=O)[C@H](CC(=O)O)NC(=O)COCCOCCNC(=O)[C@H](CCCCN)NC(=O)COCCOCCNC(=O)COCCOCCNC(=O)CC[C@H](NC(=O)CCCCCCCCCCCCCCCCC(=O)O)C(=O)O)C(=O)NCC(=O)N[C@@H](Cc1c[nH]c2ccccc12)C(=O)N[C@@H](CCCC)C(=O)N(C)[C@H](CC(=O)O)C(=O)N(C)[C@@H](Cc1ccccc1)C(N)=O ({C18 diacid-γGlu-AEEA-AEEA}-K[AEEA]D[Phe(4-CH2SO3H)][Nle]GW[Nle][dNMeD][NMeF]-NH2) | 1.6 kg | 1.2 kg | Non-Toxic | 1.8 kg | 0.9 kg | EC50 [2]: 0.214 nM; IC50 [6]: 129 nM; IC50 [7]: 0.0631 nM
